This is an account of results in patent EP4653431A1, “PYRAZOLE DERIVATIVE, AND PHARMACEUTICALLY ACCEPTABLE SALT, STEREOISOMER, PHARMACEUTICAL COMPOSITION AND USE THEREOF” (Starg (Wuhan) Pharmaceutical Technology Co., Ltd, priority 2023, dated 2024).

Structures can show the parent of a compound that is named as a salt. Where two headings read alike, the source gives them in different places.

The target of one data set is T1, CDK2/cyclin E1 (Homo sapiens, UniProt P24941).
T1 construct: purchased SignalChem
The experiment in a line: In vitro CDK2/cyclinE enzyme activity assay (TR-FRET). The class given is biochemical. Conditions: CDK2/cyclin E1, 1 mM ATP, 120 min at 25 °C. On the procedure: CDK2/cyclin E1 was purchased from SignalChem. Ulight-4E-BP1 peptide, Eu-anti-phospho-tyrosine antibody, and 1X detection buffer solution were purchased from PerkinElmer. High-purity adenosine triphosphate (ATP) was purchased from Promega. Ethylenediaminetetraacetic acid (EDTA) was purchased from Sigma. Nivo multimode plate reader (PerkinElmer) was used.
Preparation of Kinase Buffer Solution: The kinase buffer solution consisted 50 mM HEPES, 1 mM EDTA, 10 mM MgCl2, and 0.01% Brij-35, with pH of 7.4. 2.38 g HEPES, 58 mg EDTA, 406 mg MgCl2, and 20 mg Brij-35 were added to 200 mL buffer, and the pH was adjusted to 7.4.
(§1) The stop solution was prepared by mixing 100 µL of 1 M EDTA stock solution with […] of 1X detection buffer solution and 1725 µL of distilled water.
The enzyme, Ulight-4E-BP1 peptide, ATP, and the inhibitor were diluted using the kinase buffer solution. The Eu-anti-phospho-tyrosine antibody was diluted to a concentration of 8 nM/L using the detection buffer solution. The test compound was serially diluted 5-fold using a multichannel pipette to the 8th concentration, i.e., from 4 µM to 0.0512 nM. The final concentration of DMSO was 4%, and the experiment was set up with duplicate wells. 2.5 µL of each gradient concentration of the inhibitor, 5 µL of CDK2/cyclin E1 enzyme (10 ng), and 2.5 µL of a mixture of substrate and ATP (4 mM ATP, 100 nM Ulight-4E-BP1 peptide) were added to a microplate, resulting in a final concentration gradient of the compound from 1 µM to 0.0128 nM, with final ATP and substrate concentrations of 1 mM and 25 nM, respectively. The reaction system was incubated at 25 °C for 120 minutes. After the reaction, 5 µL of the stop solution was added to each well, and further reacted at 25 °C for 5 minutes to terminate the reaction. Then 5 µL of Eu-anti-phospho-tyrosine antibody dilution was added to each well, and the mixture was reacted at 25 °C for 60 minutes. Data were collected using the PerkinElmer Nivo multimode plate reader in TR-FRET mode (excitation wavelength: 320 nm; emission wavelengths: 615 nm and 665 nm).
The raw data were converted to inhibition rates according to the equation (Sample-Min)/(Max-Min)×100%. The IC50 value was obtained by fitting the data to a four-parameter curve (using log(inhibitor) vs. response -- Variable slope model in GraphPad Prism).

A further data set deals with T2, CDK1/cyclin B1 (Homo sapiens, UniProt P06493).
T2 construct: purchased Carna Biosciences
T2 sequence (P06493 whole entry): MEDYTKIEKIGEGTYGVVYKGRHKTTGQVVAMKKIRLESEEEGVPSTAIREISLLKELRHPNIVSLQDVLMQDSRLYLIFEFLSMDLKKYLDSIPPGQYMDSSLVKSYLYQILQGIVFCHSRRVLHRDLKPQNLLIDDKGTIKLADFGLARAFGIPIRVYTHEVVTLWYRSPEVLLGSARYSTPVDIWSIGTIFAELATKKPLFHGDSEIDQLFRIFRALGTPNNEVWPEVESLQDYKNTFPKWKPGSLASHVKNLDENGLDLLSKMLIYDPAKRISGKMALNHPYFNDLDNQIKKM
T2 sequence (P14635 whole entry partner): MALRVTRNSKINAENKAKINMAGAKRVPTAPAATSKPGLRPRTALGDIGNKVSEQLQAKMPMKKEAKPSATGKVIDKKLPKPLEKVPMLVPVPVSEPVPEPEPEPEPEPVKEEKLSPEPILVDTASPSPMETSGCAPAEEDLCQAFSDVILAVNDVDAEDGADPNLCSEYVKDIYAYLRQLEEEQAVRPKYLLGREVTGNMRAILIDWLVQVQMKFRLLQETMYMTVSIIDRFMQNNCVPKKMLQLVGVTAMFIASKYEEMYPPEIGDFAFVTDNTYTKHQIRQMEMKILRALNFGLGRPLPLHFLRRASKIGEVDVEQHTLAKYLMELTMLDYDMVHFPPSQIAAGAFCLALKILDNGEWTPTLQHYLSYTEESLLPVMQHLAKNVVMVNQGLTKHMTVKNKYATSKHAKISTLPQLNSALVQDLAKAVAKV
Nature of the data set: In vitro CDK1/cyclin B1 enzyme activity assay (TR-FRET). The class given is biochemical. On the procedure:
CDK1/cyclin B1 was purchased from Carna Biosciences. Ulight-4E-BP1 peptide, Eu-anti-phospho-tyrosine antibody, and 1X detection buffer were purchased from PerkinElmer. High-purity ATP was purchased from Promega. EDTA was purchased from Sigma. Nivo multimode plate reader (PerkinElmer) was used.
Preparation of Kinase Buffer Solution: The kinase buffer solution consisted 50 mM HEPES, 1 mM EDTA, 10 mM MgCl2, and 0.01% Brij-35, with pH of 7.4.
as §1
The enzyme, Ulight-4E-BP1 peptide, ATP, and the inhibitor were diluted using the kinase buffer solution.
The Eu-anti-phospho-tyrosine antibody was diluted to a concentration of 8 nM/L using the detection buffer solution.
The final concentration of DMSO was 4%, and the experiment was set up with duplicate wells. […] The reaction system was incubated at 25 °C for 60 minutes. After the reaction, 5 µL of the stop solution was added to each well, and further reacted at 25 °C for 5 minutes to terminate the reaction. Then 5 µL of Eu-anti-phospho-tyrosine antibody dilution was added to each well, and the mixture was incubated at 25 °C for 60 minutes.
The IC50 value was obtained by fitting the data to a four-parameter curve (using log(inhibitor) vs. response -- Variable slope model in GraphPad Prism).

A further data set concerns OVCAR-3 cells. The experiment in a line: In vitro OVCAR-3 cell viability assay (CellTiter-Glo). Conditions: Homo sapiens, OVCAR-3, 168 h, 7 days incubation. The class given is cell-based. As for the experimental part:
1640 medium, fetal bovine serum, and penicillin/streptomycin antibiotics were purchased from Wisent. CellTiter-Glo (cell viability chemiluminescence assay reagent) was purchased from Promega. The OVCAR-3 cell line was purchased from Nanjing Cobioer Biosciences Co., Ltd. Envision multimode plate reader (PerkinElmer) was used.
OVCAR-3 cells were seeded into a white 384-well plate, with 40 µL of cell suspension containing 300 OVCAR-3 cells per well. The cell plate was incubated overnight in a CO2 incubator.
(§2) The test compound was serially diluted 5-fold using a multichannel pipette to the 8th concentration, i.e., from 2000 µM to 0.00512 µM. The experiment was set up with duplicate wells. 78 µL of culture medium was added to an intermediate plate, and 2 µL per well of the gradient-diluted compound was transferred to the corresponding position in the intermediate plate. After mixing, 10 µL per well of the mixture was transferred to the cell plate. The concentration range of the compound transferred to the cell plate was from 10 µM to 0.026 nM. The cell plate was incubated in a CO2 incubator for 7 days. Another cell plate was prepared, and the signal value was read on the day of compound addition to serve as the maximum value (Max in the equation below) for data analysis. 10 µL per well of CellTiter-Glo reagent was added to the cell plate, and the cell plate was incubated at room temperature for 10 minutes to stabilize the luminescence signal. The signal was read using the multimode plate reader.
10 µL per well of CellTiter-Glo reagent was added to the cell plate, and the cell plate was incubated at room temperature for 10 minutes to stabilize the luminescence signal. The signal was read using the multimode plate reader.
The raw data were converted to inhibition rates using the equation (Sample-Min)/(Max-Min)×100%. The IC50 value was obtained by fitting the data to a four-parameter curve (using log(inhibitor) vs. response -- Variable slope model in GraphPad Prism). Table 1 provides the inhibitory activity of the compounds of the present application against OVCAR-3 cell proliferation.

Another data set deals with T-47D cells. The experiment in a line: In vitro T-47D cell viability assay (CellTiter-Glo). The class given is cell-based. Conditions: Homo sapiens, T47D, 168 h, 7 days incubation. As for the experimental part:
1640 medium, fetal bovine serum, and penicillin/streptomycin antibiotics were purchased from Wisent. CellTiter-Glo (cell viability chemiluminescence assay reagent) was purchased from Promega. The T-47D cell line was purchased from Nanjing Cobioer Biosciences Co., Ltd. Envision multimode plate reader (PerkinElmer) was used.
T-47D cells were seeded into a white 384-well plate, with 40 µL of cell suspension containing 300 T-47D cells per well. The cell plate was incubated overnight in a CO2 incubator.
as §2, with “using the Envision multimode plate” for “using the multimode plate”
10 µL per well of CellTiter-Glo reagent was added to the cell plate, and the cell plate was incubated at room temperature for 10 minutes to stabilize the luminescence signal. The signal was read using the Envision multimode plate reader.
The raw data were converted to inhibition rates using the equation (Sample-Min)/(Max-Min)×100%. The IC50 value was obtained by fitting the data to a four-parameter curve (using log(inhibitor) vs. response -- Variable slope model in GraphPad Prism). Table 1 provides the inhibitory activity of the compounds of the present application against T-47D cell proliferation.

Data set [1] can be described thus: Pharmacokinetic study, oral and intravenous administration in mice. To be noted: mouse, in vivo, ICR male mice; for AUC(0-t): read-out: Area under plasma concentration-time curve AUC0-last. More on the design: species or system ICR mice. On the procedure:
This study used ICR male mice as test animals. The plasma concentrations of the test compounds and the reference compound in mice were quantitatively determined at different time points using the LC-MS/MS method following intravenous injection or oral administration to evaluate the pharmacokinetic characteristics of the test compounds in mice.
ICR mice (male, 20-30 g, 6-8 weeks old, Beijing Charles River).
A clear solution of the test compound was administered to ICR mice (fasted overnight or fed) via tail vein injection or oral gavage. For intravenous injection, blood samples (50 µL) were collected via cheek puncture at 0 h (pre-dose) and at 0.083, 0.25, 0.5, 1, 2, 4, 6, 8, and 24 h post-dose into anticoagulant tubes containing sodium heparin. The mixtures were thoroughly vortexed at 4 °C and centrifuged at 6000 rpm for 3 minutes. For oral gavage, blood samples were collected via cheek puncture at 0 h (pre-dose) and at 0.083, 0.25, 1, 2, 4, 6, 8, and 24 h post-dose into anticoagulant tubes containing sodium heparin. The mixtures were vortexed thoroughly, and centrifuged at 6000 rpm for 3 minutes. Plasma drug concentrations were determined using the LC-MS/MS method. Pharmacokinetic parameters were calculated using Phoenix WinNonlin 8.2.0 pharmacokinetic software with a non-compartmental model and linear-logarithmic trapezoidal rule.

[2] abbreviates: CDK1/cyclin B1, 1 mM ATP, 60 min at 25 °C, Table 1, read-out: CDK1 IC50.
Where [3] appears, read: exact values stated in the text below Table 1, read-out: IC50 against CDK1.

Regarding `C=NOCc1nn2ccnc(Nc3cc([C@H]4CC[C@@H](OC(=O)NC(C)C)C4)[nH]n3)c2c1F` [Compound 4], the half-inhibitory concentration (IC50) at CDK2/cyclin E1 was 7.6 nM; at CDK1/cyclin B1 (setting [2]) it was more than 1000 nM; in the data set with OVCAR-3 cells it was 75 nM; in the data set with T-47D cells it was 239 nM.

`CONCc1nn2ccnc(Nc3cc([C@H]4CC[C@@H](OC(=O)NC(C)C)C4)[nH]n3)c2c1C` [Formate salt of compound 1]: the IC50 is 3.8 nM at CDK2/cyclin E1; more than 1000 nM at CDK1/cyclin B1 (setting [2]); 1910 nM at CDK1/cyclin B1 (setting [3]); 90 nM with OVCAR-3 cells; 293 nM with T-47D cells.

Turning to `COCc1cc(C(=O)Nc2cc([C@H]3CC[C@@H](OC(=O)NC(C)C)C3)[nH]n2)n(C)n1` [PF-07104091, reference compound], the IC50 is 521 nM on CDK1/cyclin B1 (setting [2]), 172 nM with OVCAR-3 cells and 377 nM in the data set with T-47D cells. Further, the Vd in data set [1] (intravenous administration, 5 mg/Kg, read-out: Apparent volume of distribution Vdss) was 11.8 L/kg. The AUC(0-t) stood at 1640 ng·h/mL in data set [1] (intravenous administration, 5 mg/Kg) and 7520 ng·h/mL in data set [1] (oral administration, 30 mg/Kg). In data set [1] (intravenous administration, 5 mg/Kg, read-out: Clearance CL), the clearance was 50.3 mL/min/kg. Besides, the half-life in data set [1] (intravenous administration, 5 mg/Kg, read-out: Half-life T1/2 (converted)) was 2.68 h. In addition, in data set [1] (oral 30 mg/Kg vs intravenous 5 mg/Kg, read-out: Bioavailability F), the bioavailability came out at 76.2%. Moreover, the Cmax in data set [1] (oral administration, 30 mg/Kg, read-out: Peak concentration Cmax) came to 6320 ng/mL. The Tmax in data set [1] (oral administration, 30 mg/Kg, read-out: Time to peak Tmax) came out at 0.25 h.

As to `CNOCc1nn2ccnc(Nc3cc([C@H]4CC[C@@H](OC(=O)NC(C)C)C4)[nH]n3)c2c1F` [Hydrochloride salt of Compound 7], the IC50 was 9.5 nM against CDK2/cyclin E1; more than 1000 nM on CDK1/cyclin B1 (setting [2]); more than 10000 nM on CDK1/cyclin B1 (setting [3]); 140 nM in the data set on OVCAR-3 cells; 492 nM with T-47D cells.

For `CNOCc1nn2ccnc(Nc3cc([C@H]4CC[C@@H](OC(=O)NC(C)C)C4)[nH]n3)c2c1C` [Hydrochloride salt of compound 3], the IC50 was 4.2 nM on CDK2/cyclin E1; more than 1000 nM on CDK1/cyclin B1 (setting [2]); 1350 nM at CDK1/cyclin B1 (setting [3]); 187 nM in the data set with OVCAR-3 cells; 383 nM in the data set with T-47D cells.
